Laboratory results reported in patent US8551984B2, “Aminopyrimidines as SYK inhibitors” (Merck Sharp & Dohme Corp., priority 2009, dated 2013).

Target: recombinant human SYK (GST-hSYK fusion protein) (Homo sapiens, UniProt P43405)
Test: biochemical
[1] = rhSYK Activity (IC50), recombinant human GST-SYK 5 pM, ATP 25 μM, biotinylated substrate peptide 250 nM, HTRF, 10-dose titration
[2] = Syk IC50, HTRF, recombinant human GST-SYK

Excerpt: Homogeneous Time-Resolved Fluorescence (HTRF) Assay for the Recombinant Human SYK Enzyme:

## COCc1cc(Nc2nccc(C(F)(F)F)n2)cc(-c2cnc(C3(O)CCC(C(=O)O)C(C)C3)s2)c1 (centres unmarked) [Example 113A-42]
rhSYK Activity, Table 113A
  IC50: < 100 nM

## Cc1cc(Nc2nccc(C(F)(F)F)n2)cc(-c2cnc(C3(O)CCC(C)(C(=O)O)CC3)s2)c1 (centres unmarked) [Example 33A-13]
rhSYK Activity, Table 33-A
  IC50: < 100 nM

## Cc1cc(Nc2nccc(C(=O)O)n2)cc(-c2cnc([C@@]3(O)CC[C@H](C(=O)O)C(C)(C)C3)s2)c1 [116A-24]
rhSYK Activity, Table 116A
  IC50: < 100 nM

## Cc1cc(Nc2nccc(C)n2)cc(-c2cnc(C3(O)CCC4(CC3)OCCO4)s2)c1 [Example 33C-17]
rhSYK Activity, Table 33C
  IC50: < 100 nM

## Cc1cc(Nc2nccc(C(F)(F)F)n2)cc(-c2cnc(C3(O)CCN(C(=O)CN4CCCC4=O)CC3)s2)c1 [Example 54A-10]
RHSYK Activity, Table 54A
  IC50: < 100 nM

## Cc1cc(Nc2nccc(C(F)C3CC3)n2)cc(-c2cnc(C3(O)CCC(C(=O)O)C(C)(C)C3)s2)c1 (single isomer, unassigned) [Example 100A-21]
[1]
  IC50: < 100 nM

## COCC1CN(Cc2ncc(-c3cc(C)cc(Nc4nccc(C(F)(F)F)n4)c3)s2)CCO1 (centres unmarked) [Example 88B-13]
[1]
  IC50: < 100 nM

## Cc1cc(Nc2nccc(C(F)(F)F)n2)cc(-c2cnc(C3=CC(=O)CCCC3)s2)c1 [Example 36A-9]
rhSYK Activity, Table 36A
  IC50: < 100 nM

## Cc1cc(Nc2nccc(C(F)(F)F)n2)cc(-c2cnc(CNC3CCCCNC3=O)s2)c1 (centres unmarked) [Example 88A-29]
[1]
  IC50: < 100 nM

## Cc1cc(Nc2nccc(C(F)(F)F)n2)cc(-c2cnc(CN3CCP(=O)(C(C)C)CC3)s2)c1 [Example 88B-17]
[1]
  IC50: < 100 nM

## Cc1cc(Nc2nccc(C(F)(F)F)n2)cc(-c2cnc(C3(O)CCCN(S(N)(=O)=O)CC3)s2)c1 (single isomer, unassigned) [Example 54D-116]
rhSYK Activity, Table 54D
  IC50: < 100 nM

## Cc1cc(Nc2nccc(OCc3ccnn3C)n2)cc(-c2cnc(C3(O)CCC3)s2)c1 [Example 108A-16]
rhSYK Activity, Table 108A
  IC50: < 100 nM

## Cc1cc(Nc2nccc(C(C)C)n2)cc(-c2cnc(C3(O)CCCN(C(=O)CC(N)=O)CC3)s2)c1 (centres unmarked) [Example 54D-6]
rhSYK Activity, Table 54D
  IC50: < 100 nM

## Cc1cc(Nc2nccc(C(F)(F)F)n2)cc(-c2cnc(C3(O)CC(C)(C)C(C(=O)O)CC3O)s2)c1 (stereo not drawn) [142(1), 1,4-Trans, 1,5-trans-4,5-dihydroxy-2,2-dimethyl-4-[5-(3-methyl-5-{[4-(trifluoromethyl)pyrimidin-2-yl]amino}phenyl)-1,3-thiazol-2-yl]cyclohexanecarboxylic acid]
[1]
  IC50: < 100 nM

## CC(=O)NC1(c2ncc(-c3cc(C)cc(Nc4nccc(C(F)(F)F)n4)c3)s2)COC1 [66-1]
hSYK Activity, table after Example 66
  IC50: < 100 nM

## CCOC(=O)C1CC(C)C(O)(c2ncc(-c3cc(C)cc(Nc4nccc(C(F)(F)F)n4)c3)s2)CC1C (centres unmarked) [Example 113B-19]
rhSYK Activity, Table 113B
  IC50: < 100 nM

## COC(=O)C1CC(O)CN1C(=O)c1ncc(-c2cc(C)cc(Nc3nccc(C(F)(F)F)n3)c2)s1 (centres unmarked) [Example 87B-21]
[1]
  IC50: < 100 nM

## Cc1cc(Nc2nccc(C(F)(F)F)n2)cc(-c2cnc(C(=O)N(C)CC(O)CO)s2)c1 (centres unmarked) [Example 87A-26]
[1]
  IC50: < 100 nM

## Cc1cc(Nc2nccc(C(C)C)n2)cc(-c2cnc(C3(O)CCCNCC3)s2)c1 (centres unmarked) [Example 54D-1]
rhSYK Activity, Table 54D
  IC50: < 100 nM

## Cc1cc(Nc2nccc(C(F)(F)F)n2)cc(-c2cnc(CN3CCN(S(C)(=O)=O)CC3)s2)c1 [Example 88B-9]
[1]
  IC50: < 100 nM

## Cc1cc(Nc2nccc(C(F)(F)F)n2)cc(-c2cnc(CN3CCN(C)C3=O)s2)c1 [Example 92-3]
[1]
  IC50: < 100 nM

## CCOC(=O)C1CC(C)C(O)(c2ncc(-c3cc(C)cc(Nc4nccc(C)n4)c3)s2)CC1C (centres unmarked) [Example 113B-11]
rhSYK Activity, Table 113B
  IC50: 100 to 1000 nM

## Cc1cc(Nc2ncc(C)c(N(C)C)n2)cc(-c2cnc(C3(O)CCC(C(=O)O)C(C)(C)C3)s2)c1 (centres unmarked) [Example 100A-16]
[1]
  IC50: < 100 nM

## Cc1cc(Nc2nccc(C(F)(F)F)n2)cc(-c2cnc(C3(O)CCCN(C(=O)C4CNC(=O)N4)CC3)s2)c1 (centres unmarked) [Example 54D-64]
rhSYK Activity, Table 54D
  IC50: < 100 nM

## Cc1cc(Nc2nccc(C(F)(F)F)n2)cc(-c2cnc(C3(O)CC(C(=O)O)N(C(N)=O)C3)s2)c1 (centres unmarked) [54B-36]
rhSYK Activity, Table 54B
  IC50: < 100 nM

## Cc1cc(Nc2nccc(C(F)(F)F)n2)cc(-c2cnc(C3(S(N)(=O)=O)CCC3)s2)c1 [Example 74B-4]
rhSYK Activity, Table 74B
  IC50: < 100 nM

## COc1nc(Nc2cc(C)cc(-c3cnc(C4(O)CCC(O)CC4)s3)c2)ncc1C(F)(F)F (centres unmarked) [Example 100A-11]
[1]
  IC50: 100 to 1000 nM

## CCOC(=O)CC(=O)N1CCCC(O)(c2ncc(-c3cc(C)cc(Nc4nccc(C(F)(F)F)n4)c3)s2)CC1 (single isomer, unassigned) [Example 54D-75]
rhSYK Activity, Table 54D
  IC50: < 100 nM

## CC(C)(O)c1cc(Nc2nccc(C(F)(F)F)n2)cc(-c2cnc(C3(O)CCC(C(=O)O)C(C)(C)C3)s2)c1 (centres unmarked) [Example 33A-48]
rhSYK Activity, Table 33-A
  IC50: < 100 nM

## Cc1cc(Nc2nccc(C)n2)cc(-c2cnc(C3(O)CCC(C(=O)O)C(c4ccccc4)C3)s2)c1 (centres unmarked) [Example 33B-37]
rhSYK Activity, Table 33B
  IC50: < 100 nM

## COC(=O)CCN1CCC(O)(c2ncc(-c3cc(C)cc(Nc4nccc(C(F)(F)F)n4)c3)s2)CC1 [Example 54A-71]
RHSYK Activity, Table 54A
  IC50: < 100 nM

## COC(=O)CN1CCC(O)(c2ncc(-c3cc(C)cc(Nc4nccc(C(F)(F)F)n4)c3)s2)C1 (centres unmarked) [54B-24]
rhSYK Activity, Table 54B
  IC50: < 100 nM

## Cc1cc(Nc2nccc(C(C)C)n2)cc(-c2cnc([C@@]3(O)CC[C@H](C(=O)O)[C@H](C)C3)s2)c1 [Example 113A-25]
rhSYK Activity, Table 113A
  IC50: < 100 nM

## Cc1cc(Nc2nccc(C(F)(F)F)n2)cc(-c2cnc(CCC(=O)N(C)C)s2)c1 [Example 79-4]
[1]
  IC50: < 100 nM

## C#Cc1ccc(C(=O)N2CCC(O)(c3ncc(-c4cc(C)cc(Nc5nccc(C(F)(F)F)n5)c4)s3)CC2)cc1 [Example 54A-55]
RHSYK Activity, Table 54A
  IC50: < 100 nM

## Cc1cc(Nc2nccc(OCC#Cc3cncnc3)n2)cc(-c2cnc(C3(O)CCC3)s2)c1 [Example 108A-22]
rhSYK Activity, Table 108A
  IC50: 100 to 1000 nM

## Cc1cc(Nc2nccc(C(F)(F)F)n2)cc(-c2cnc(C3(O)CCCN(C(=O)C(C)(CO)CO)CC3)s2)c1 (single isomer, unassigned) [Example 54D-79]
rhSYK Activity, Table 54D
  IC50: < 100 nM

## COC(=O)C(C)(C)OCC(C)(O)c1ncc(-c2cc(C)cc(Nc3nccc(C(F)(F)F)n3)c2)s1 (centres unmarked) [Example 33D-8]
rhSYK Activity, Table 33D
  IC50: < 100 nM

## Cc1cc(Nc2nccc(C(F)(F)F)n2)cc(-c2cnc(CN3CCC(P(=O)(O)O)C3)s2)c1 (centres unmarked) [Example 88B-15]
[1]
  IC50: < 100 nM

## Cc1cc(Nc2nccc(C(F)(F)F)n2)cc(-c2cnc(C3(O)CCNC(=O)CC3)s2)c1Br (single isomer, unassigned) [Example 111-2]
[1]
  IC50: < 100 nM

## Cc1cc(Nc2nccc(C(F)(F)F)n2)cc(-c2cnc(CC3(C(=O)O)CCNC3=O)s2)c1 (centres unmarked) [Example 92, 3-{[5-(3-methyl-5-{[4-(trifluoromethyl)pyrimidin-2-yl]amino}phenyl)-1,3-thiazol-2-yl]methyl}-2-oxopyrrolidine-3-carboxylic acid]
[1]
  IC50: < 100 nM

## Cc1cc(Nc2nccc(C(F)(F)F)n2)cc(-c2cnc(C3(O)CCCN(C(=O)c4n[nH]c(=O)[nH]4)CC3)s2)c1 (centres unmarked) [Example 54D-62]
rhSYK Activity, Table 54D
  IC50: < 100 nM

## Cc1cc(Nc2nccc(C(F)(F)F)n2)cc(-c2cnc(C(C)(O)c3ccc(S(C)(=O)=O)cc3)s2)c1 (centres unmarked) [Example 131, 1-[4-(methylsulfonyl)phenyl]-1-[5-(3-methyl-5-{[4-(trifluoromethyl)pyrimidin-2-yl]amino}phenyl)-1,3-thiazol-2-yl]ethanol]
[1]
  IC50: < 100 nM

## Cc1cc(Nc2nccc(C(C)C)n2)cc(-c2cnc(C3(O)CCCN(C(=O)C(C)(CO)CO)CC3)s2)c1 (centres unmarked) [Example 54D-31]
rhSYK Activity, Table 54D
  IC50: < 100 nM

## Cc1cc(Nc2nccc(C(F)(F)F)n2)cc(-c2cnc(C3(O)CCCN(CC(=O)O)CC3)s2)c1 (centres unmarked) [{4-hydroxy-4-[5-(3-methyl-5-{[4-(trifluoromethyl)pyrimidin-2-yl]amino}phenyl)-1,3-thiazol-2-yl]azepan-1-yl)acetic acid]
[2]
  IC50: 216 nM

## Cc1cc(Nc2nccc(OC3CCNCC3F)n2)cc(-c2cnc(C(C)(O)C(F)(F)F)s2)c1 (centres unmarked) [Example 94B-4]
[1]
  IC50: < 100 nM

## COc1nc(Nc2cc(C)cc(-c3cnc(C(C)(C)S(N)(=O)=O)s3)c2)ncc1Cl [74A-7]
rhSYK Activity, Table 74A
  IC50: < 100 nM

## COCC(=O)N1CCCC(O)(c2ncc(-c3cc(C)cc(Nc4nccc(C(F)(F)F)n4)c3)s2)CC1 (centres unmarked) [Example 54D-12]
rhSYK Activity, Table 54D
  IC50: < 100 nM

## COC(=O)C(O)(CC(=O)N1CCCC(O)(c2ncc(-c3cc(C)cc(Nc4nccc(C(F)(F)F)n4)c3)s2)CC1)C(F)(F)F (centres unmarked) [Example 54D-112]
rhSYK Activity, Table 54D
  IC50: < 100 nM

## Cc1cc(Nc2nccc(C(F)(F)F)n2)cc(-c2cnc(C3(O)CC4(CC(C(=O)O)C4)C3)s2)c1 (centres unmarked) [6-hydroxy-6-[5-(3-methyl-5-{[4-(trifluoromethyl)pyrimidin-2-yl]amino}phenyl)-1,3-thiazol-2-yl]spiro[3.3]heptane-2-carboxylic]
[2]
  IC50: 2 nM

## Cc1cc(Nc2nccc(C(F)(F)F)n2)cc(-c2cnc(C(=O)NC3(CO)CC3)s2)c1 [Example 87A-9]
[1]
  IC50: < 100 nM

## Cc1cc(Nc2nccc(C(F)(F)F)n2)cc(-c2cnc(C(=O)N3C[C@@H](O)[C@@H](O)C3)s2)c1 [Example 87B-18]
[1]
  IC50: < 100 nM

## Cc1ccnc(Nc2cc(-c3cnc(C4(O)CCC(C(=O)O)C(C)C4)s3)cc(C3CC3)c2)n1 (centres unmarked) [Example 113A-23]
rhSYK Activity, Table 113A
  IC50: < 100 nM

## Cc1cc(Nc2nccc(C(C)(C)C)n2)cc(-c2cnc(C3(O)CCC(C(=O)OC(C)(C)C)CC3)s2)c1 (centres unmarked) [116A-12]
rhSYK Activity, Table 116A
  IC50: 100 to 1000 nM

## CCOC(=O)C1CCC(O)(c2ncc(-c3cc(C)cc(Nc4nccc(C(F)(F)F)n4)c3)s2)C(C)C1 (centres unmarked) [Example 113A-89]
rhSYK Activity, Table 113A
  IC50: < 100 nM

## Cc1cc(Nc2ncc(F)c(C)n2)cc(-c2cnc(C3(O)CCC(=O)CC3)s2)c1 [8A-8]
rhSYK Activity, Table 8A
  IC50: < 100 nM

## Cc1cc(Nc2nccc(C(F)(F)F)n2)cc(-c2cnc(C(C)(C)c3nnc(C)o3)s2)c1 [Example 85A-4]
[1]
  IC50: < 100 nM

## Cc1cc(Nc2nccc(C(F)(F)F)n2)cc(-c2cnc(C3(O)CCN(C(=O)CCc4cn[nH]c4)CC3)s2)c1 [Example 54A-50]
RHSYK Activity, Table 54A
  IC50: < 100 nM

## CS(=O)(=O)NC1(c2ncc(-c3cccc(Nc4nccc(C(F)(F)F)n4)c3)s2)COC1 [Example 61B-9]
rhSYK Activity, Table 61B
  IC50: < 100 nM
